Tests used:
Format in all cases: cell-based
[1] = tested on: senescent human dermal fibroblast (HDF) M11 cells; assay: Mitochondrial reactive oxygen species (MitoSOX Red); conditions: 0.1 μM, about 3 weeks, vs DMSO
Experimental: (§1) In order to examine whether senescent cells proliferate in response to treatment with BRAF inhibitors, human dermal fibroblast (HDF) M11 cells taken from a child are cultured in Dulbecco's Modified Eagle's Medium (DMEM) containing a high concentration of glucose, glutamine, and pyruvate, and 10% (v/v) fetal bovine serum (FBS), and 1× penicillin/streptomycin at about 37° C. and 5% CO2 atmosphere, thereby obtaining senescent cells. As for the senescent cells, cells that are passaged 35 times and whose doubling time is about 10 days or longer are used.
(§2) As described in 1, 0.1 μM SB590885 is added to the prepared senescent cells, which are cultured in the presence of SB590885 for about 3 weeks. Cells treated with DMSO (Sigma-Adrich) alone are used as a negative control group.
In order to measure mitochondrial function in senescent cells, the amount of reactive oxygen species (ROS) in the prepared senescent cells is measured using a MitoSOX™ Red Mitochondrial Superoxide indicator (Life technologies). A relative ROS amount of the senescent cells cultured in the presence of SB590885 to that of the negative control group is shown in FIG. 4B. […] Accordingly, SB590885 inhibits mitochondrial damage in senescent cells.
As described in 3(2), the amount of ROS in the senescent cells is measured. A relative ROS ratio of the senescent cells cultured in the presence of TAK-632 to the negative control group is calculated.
As described in 3.(2), the amount of ROS in the senescent cells is measured. A relative ROS ratio of the senescent cells cultured in the presence of vemurafenib to the negative control group is calculated.

[2] = tested on: senescent human dermal fibroblast (HDF) M11 cells; assay: Lipofuscin accumulation by autofluorescence (FACS); conditions: 0.1 μM, about 3 weeks, vs DMSO
Experimental: as §1, §2
As lipofuscin in senescent cells emits autofluorescence, accumulation of lipofuscin is analyzed by measuring the fluorescent radiation having a wavelength of 520 nm while irradiating the senescent cells with rays having a wavelength at about 488 nm using a FACSCaliber (Beckton Dickson). A relative autofluorescence ratio of the senescent cells cultured in the presence of SB590885 to the negative control group is calculated.
As described in 1, 0.1 μM TAK-632 is added to the prepared senescent cells, which are cultured in the presence of TAK-632 for about 3 weeks. Cells treated with DMSO (Sigma-Adrich) alone are used as a negative control group.
As described in 3(2), autofluorescence in the senescent cells is measured and a relative autofluorescence ratio of the senescent cells cultured in the presence of TAK-632 to the negative control group is calculated.
As described in 1, 0.1 μM vemurafenib is added to the prepared senescent cells, which are cultured in the presence of vemurafenib for about 3 weeks. Cells treated with DMSO (Sigma-Adrich) alone are used as a negative control group.
As described in 3.(2), autofluorescence in the senescent cells is measured and a relative autofluorescence ratio of the senescent cells cultured in the presence of vemurafenib to the negative control group is calculated.

[3] = tested on: senescent human dermal fibroblast (HDF) M11 cells; assay: Lysosome accumulation (LysoTracker Blue DND-22, FACS); conditions: 0.1 μM, about 3 weeks, vs DMSO
Experimental: as §1, §2
In order to measure lysosome accumulation in senescent cells, the prepared senescent cells are stained using a LysoTracker®Blue DND-22 (Life Technologies, Cat. No. L-7525). The amount of lysosome is quantified by measuring the fluorescent radiation having a wavelength of 422 nm while irradiating the stained senescent cells with rays having a wavelength at about 373 nm using a FACSCaliber (Beckton Dickson). The amount (%) of lysosome in the cells cultured in the presence of SB590885 relative to that of the negative control group is shown in FIG. 4C.
As described in 3(2), the amount of lysosomes in senescent cells is measured and the amount (%) of lysosome in the cells cultured in the presence of TAK-632 relative to that of the negative control group is shown in FIG. 5C.
As described in 3.(2), the amount of lysosomes in senescent cells is measured and the amount (%) of lysosome in the cells cultured in the presence of vemurafenib relative to that of the negative control group is shown in FIG. 6C.

[4] = tested on: senescent human dermal fibroblast (HDF) M11 cells; assay: Relative proliferation rate of senescent cells (SYBR Green I DNA quantification); conditions: 5 μM, about 3 weeks, vs DMSO negative control
Experimental: as §1
The prepared senescent cells are inoculated at a density of 1000 cells/well in a 96-well plate. The BRAF inhibitor is added to the inoculated cells at a final concentration of 5 μM. SB590885, vemurafenib (PLX4032, RG7204), TAK-632, CEP-32496, GDC-0879, PLX-4720, ZM 336372, Sorafenib tosylate, Sorafenib, GW5074, Dabrafenib (GSK2118436), AZ 628, RAF265 (CHIR-265), and NVP-BHG712 are used as BRAF inhibiting drugs. Cells treated with dimethyl sulfoxide (DMSO) (Sigma-Aldrich) alone are used as a negative control group. The medium is replaced with a fresh medium containing the drug or DMSO alone once every four days. About 3 weeks after initial addition of the drug, 0.1% (w/v) SYBR Green I (Life Technologies, Cat. No. S-7563) is used to quantify DNA, and the number of cells is calculated from the DNA quantity measured.
The number of the senescent cells in the drug-treated group is compared to the number of the cells in the negative control group so as to calculate a relative proliferation rate. The relative proliferation rates of senescent cells treated with BRAF inhibitors to that of the negative control group are shown in FIG. 1.
The senescent cells prepared as described in 1 are inoculated at a density of 1000 cells/well in a 96-well plate. […]
Then, SYBR Green I (Life Technologies, Cat. No. S-7563) is used to quantify DNA in the senescent cells thus cultured, and the number of cells is calculated from the DNA quantity measured. […]

Compound | ROS relative to negative control group [1] | decrease in the amount of ROS compared to negative control group [1] | autofluorescence relative to negative control group [2] | decrease in lipofuscin compared to negative control group [2] | decrease in lysosome accumulation compared to negative control group [3] | proliferation rate higher than the negative control group [4]
CN(C)CCOc1ccc(-c2nc(-c3ccncc3)c(-c3ccc4c(c3)CC/C4=N\O)[nH]2)cc1 [SB590885] | about 38% | about 60% | about 28% | 70% | about 25% | about 30%
N#Cc1c(Oc2ccc(F)c(NC(=O)Cc3cccc(C(F)(F)F)c3)c2)ccc2nc(NC(=O)C3CC3)sc12 [TAK-632] | – | ~40% | – | ~48% | ~40% | about 30%
CCCS(=O)(=O)Nc1ccc(F)c(C(=O)c2c[nH]c3ncc(-c4ccc(Cl)cc4)cc23)c1F [vemurafenib] | – | about 40% | – | about 60% | about 40% | about 30%
